According to US20240417370A1, “LIPIDS FOR USE IN LIPID NANOPARTICLE FORMULATIONS” (Acuitas Therapeutics, Inc., priority 2023, published 2024):

How the values were obtained:
[1] = test system: luciferase expression in the liver; assay: Luciferase mRNA in vivo evaluation using lipid nanoparticle compositions; set-up: species or system mice; conditions: LNP-formulated lipid, tail vein injection, ng luciferase/g liver 4 hours after administration; for Liver Luc @ 0.3 mg/kg: 0.3 mg mRNA/kg; for Liver Luc @ 1.0 mg/kg: 1.0 mg mRNA/kg
Procedure: (§1) A lipid of structure (I), DSPC, cholesterol and PEG-lipid are solubilized in ethanol at a molar ratio of 50:10:38.5:1.5 or 47.5:10:40.7:1.8. Lipid nanoparticles (LNP) are prepared at a total lipid to mRNA weight ratio of approximately 10:1 to 40:1. Briefly, the mRNA is diluted to 0.2 mg/mL in 10 to 50 mM citrate buffer, pH 4 to 6 or 10 to 25 mM acetate buffer, pH 4. Syringe pumps are used to mix the ethanolic lipid solution with the mRNA aqueous solution at a ratio of about 1:5 to 1:3 (vol/vol) with total flow rates above 15 mL/min. The ethanol is then removed, and the external buffer replaced with PBS by dialysis. Finally, the lipid nanoparticles are filtered through a 0.2 µm pore sterile filter.
Studies are performed in 6-8-week-old female C57BL/6 mice (Charles River) 8-10-week-old CD-1 mice (Charles River or Inotiv) according to guidelines established by an institutional animal care committee (ACC) and the Canadian Council on Animal Care (CCAC). Varying doses of mRNA-lipid nanoparticle are systemically administered by tail vein injection and animals euthanized at a specific time point (e.g., 4 hours) post-administration. Liver and spleen are collected in pre-weighed tubes, weights determined, immediately snap frozen in liquid nitrogen, and stored at −80° C. until processing for analysis.
For liver, approximately 50 mg is dissected for analyses in a 2 mL FastPrep tubes (MP Biomedicals, Solon OH). ¼″ ceramic sphere (MP Biomedicals) is added to each tube and 500-750 μL of Glo Lysis Buffer—GLB (Promega, Madison WI) equilibrated to room temperature is added to liver tissue. Liver tissues are homogenized with the FastPrep24 instrument (MP Biomedicals) at 2×6.0 m/s for 15 seconds. Homogenate is incubated at room temperature for 5 minutes prior to a 1:4 to 1:6 dilution in GLB and assessed using SteadyGlo Luciferase assay system (Promega). Specifically, 50 μL of diluted tissue homogenate is reacted with 50 μL of SteadyGlo substrate, shaken for 10 seconds followed by 5-minute incubation and then luminescence was quantitated using a FilterMax F5 Microplate Reader (Molecular Devices, USA). The amount of protein assayed is determined by using the BCA protein assay kit (Pierce, Rockford, IL). Relative luminescence units (RLU) were then normalized to total μg protein or weight (g) of tissue assayed. To convert RLU to ng luciferase a standard curve is generated with QuantiLum Recombinant Luciferase (Promega).
The FLuc mRNA (L-7202) from Trilink Biotechnologies will express a luciferase protein, originally isolated from the firefly, Photinus pyralis. Flue is commonly used in mammalian cell culture to measure both gene expression and cell viability. It emits bioluminescence in the presence of the substrate, luciferin. This capped and polyadenylated mRNA is modified with 5-methoxyuridine and optimized for mammalian systems.
(§2) Representative compounds of the disclosure shown in Table 2 were formulated using the following molar ratio: 50% cationic lipid/10% distearoylphosphatidylcholine (DSPC)/38.5% Cholesterol/1.5% PEG lipid 2-[2-(ω-methoxy(polyethyleneglycol2000)ethoxy]-N,N-ditetradecylacetamide) or 47.5% cationic lipid/10% DSPC/40.7% Cholesterol/1.8% PEG lipid. Relative activity was determined by measuring luciferase expression in the liver 4 hours following administration via tail vein injection as described in Example 1 or by measuring the amount of human IgG in mouse serum as described in example 2. The activity was compared at a dose of 1.0 or 0.5 or 0.3 mg mRNA/kg and expressed as ng luciferase/g liver measured 4 hours after administration, as described in Example 1 or as μg IgG/mL serum measured 24 hours after administration, as described in Example 2. Compound numbers in Table 2 refer to the compound numbers of Table 1.

human IgG in mouse serum = assay: Immunoglobulin G (IgG) mRNA in vivo evaluation using lipid nanoparticle compositions; set-up: species or system mice; conditions: LNP-formulated lipid, tail vein injection, μg IgG/mL serum 24 hours after administration; for Serum IgG @ 0.3 mg/kg: 0.3 mg mRNA/kg; for Serum IgG @ 1.0 mg/kg: 1.0 mg mRNA/kg
Procedure: as §1, with “4 to 6.” for “4.”
Studies are performed in 6-8-week-old CD-1/ICR mice (Envigo, Charles River, or Inotiv) according to guidelines established by an institutional animal care committee (ACC) and the Canadian Council on Animal Care (CCAC). Varying doses of mRNA-lipid nanoparticle are systemically administered by tail vein injection and animals euthanized at a specific time point (e.g., 24 hours) post-administration. The whole blood is collected, and the serum subsequentially separated by centrifuging the tubes of the whole blood at 2000×g for 10 minutes at 4° C. and stored at −80° C. until use for analysis.
For immunoglobulin G (IgG) ELISA (Life Diagnostics Human IgG ELISA kit), the serum samples are diluted at 100 to 20,000 folds with 1× diluent solution. 100 μL of diluted serum is dispensed into anti-human IgG coated 96-well plate in duplicate alongside human IgG standards and incubated in a plate shaker at 150 rpm at 25° C. for 45 minutes. The wells are washed 5 times with 1× wash solution using a plate washer (400 μL/well). 100 μL of HRP conjugate is added into each well and incubated in a plate shaker at the same condition above. The wells are washed 5 times again with 1× wash solution using a plate washer (400 μL/well). 100 μL of TMB reagent is added into each well and incubated in a plate shaker at the same condition above. The reaction is stopped by adding 100 μL of Stop solution to each well. The absorbance is read at 450 nm (A450) with a microplate reader. The amount of human IgG in mouse serum is determined by plotting A450 values for the assay standard against human IgG concentration.
as §2

| SMILES | Liver Luc @ 0.3 mg/kg [1] | Liver Luc @ 1.0 mg/kg [1] | Serum IgG @ 0.3 mg/kg (human IgG in mouse serum) | Serum IgG @ 1.0 mg/kg (human IgG in mouse serum) |
| --- | --- | --- | --- | --- |
| CCCCCCCCCCN(CCCCCCCCCC)C(=O)CCCCCCCN(CCCCCCCC(=O)N(CCCCCCCCCC)CCCCCCCCCC)C[C@H]1C[C@@H](O)C1 [(1S, 3S) I-2, 8,8′-((((1S,3S)-3-hydroxycyclobutyl)methyl)azanediyl)bis(N,N-didecyloctanamide)] | 10872 ± 2411 ng/g | 91854 ± 15303 ng/g |  |  |
| CCCCCCCCCCN(CCCCCCCCCC)C(=O)CCCCCCCN(CCCCCCCC(=O)N(CCCCCCCCCC)CCCCCCCCCC)C[C@H]1C[C@H](O)C1 [(1R, 3R) I-2, 8,8′-((((1R,3R)-3-hydroxycyclobutyl)methyl)azanediyl)bis(N,N-didecyloctanamide)] | 12651 ± 3017 ng/g | 82113 ± 14450 ng/g |  |  |
| CCCCCCCCCCN(CCCCCCCCCC)C(=O)CCCCCCCN(CCCCCCCC(=O)N(CCCCCCCCCC)CCCCCCCCCC)CC[C@H]1C[C@@H](O)C1 [(1S, 3R) I-1, 8,8′-((2-((1S,3R)-3-hydroxycyclobutyl)ethyl)azanediyl)bis(N,N-didecyloctanamide)] | 18927 ± 2102 ng/g | 79233 ± 12026 ng/g |  |  |
| CCCCCCCCCCN(CCCCCCCCCC)C(=O)C(F)CCCCCCN(CCCCCCC(F)C(=O)N(CCCCCCCCCC)CCCCCCCCCC)CC[C@H]1C[C@@H](O)C1 (stereo partly drawn) [(1S, 3R) I-19, 8,8′-((2-((1S,3R)-3-hydroxycyclobutyl)ethyl)azanediyl)bis(N,N-didecyl-2-fluorooctanamide)] |  |  | 30.68 ± 8.05 µg/mL | 267.70 ± 45.90 µg/mL |
| CCCCCCCCCCN(CCCCCCCCCC)C(=O)CCCCCCCN(CCCCCCCC(=O)N(CCCCCCCCCC)CCCCCCCCCC)C[C@H]1C[C@@H]1CO (racemic) [(rac)-(1RS, 2RS) I-45, 8,8′-((((1s,2s)-2-(hydroxymethyl)cyclopropyl)methyl)azanediyl)bis(N,N-didecyloctanamide)] |  |  | 10.95 ± 4.31 µg/mL |  |
| CCCCCCCCCCN(CCCCCCCCCC)C(=O)CCCCCCCN(CCCCCCCC(=O)N(CCCCCCCCCC)CCCCCCCCCC)C1CCC[C@H]1O (mixture of isomers) [(rac)-(1RS, 2RS) I-48, 8,8′-(((1s,2s)-2-hydroxycyclopentyl)azanediyl)bis(N,N-didecyloctanamide)] |  |  | 32.85 ± 6.90 µg/mL | 216.8 ± 46.48 µg/mL |
| CCCCCCCCCCN(CCCCCCCCN(CCCCCCCCN(CCCCCCCCCC)C(=O)CCCCCCCCC)C[C@H]1C[C@@H](O)C1)C(=O)CCCCCCCCC [(1S, 3S) I-22, N,N′-(((((1S,3S)-3-hydroxycyclobutyl)methyl)azanediyl)bis(octane-8,1-diyl))bis(N-decyldecanamide)] |  |  | 50.48 ± 11.93 µg/mL |  |
| CCCCCCCCCCN(CCCCCCCCCC)C(=O)CCCCCCCN(CCCCCCCC(=O)NC(CCCCCCCCC)CCCCCCCCC)[C@H]1CC[C@@H](O)CC1 [(1S, 4S) I-58, N,N-didecyl-8-(((1s,4s)-4-hydroxycyclohexyl)(8-(nonadecan-10-ylamino)-8-oxooctyl)amino)octanamide] |  |  | 61.75 ± 11.64 µg/mL |  |
